The values below come from ChEMBL document CHEMBL3044772, “QSAR modeling of some substituted benzimidazole as Angotensin II AT1 receptor antagonist” (Med Chem Res, 2010).

The first test addresses T1, Type-1 angiotensin II receptor (Bos taurus, UniProt P25104).
T1 sequence (P25104 whole entry): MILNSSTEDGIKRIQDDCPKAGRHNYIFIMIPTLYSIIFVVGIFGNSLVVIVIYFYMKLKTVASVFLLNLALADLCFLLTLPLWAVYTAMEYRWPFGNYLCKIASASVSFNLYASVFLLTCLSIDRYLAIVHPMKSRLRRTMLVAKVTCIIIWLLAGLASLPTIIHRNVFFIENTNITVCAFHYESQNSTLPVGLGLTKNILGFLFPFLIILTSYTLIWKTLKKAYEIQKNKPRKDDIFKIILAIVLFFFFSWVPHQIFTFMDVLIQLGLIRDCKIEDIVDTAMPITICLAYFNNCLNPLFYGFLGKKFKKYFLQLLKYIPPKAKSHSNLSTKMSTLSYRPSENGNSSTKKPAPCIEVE
Kind of test: Displacement of [125I]angiotensin 2 from type-1 angiotensin 2 receptor in Bos taurus (bovine) adrenal cortical membrane. The note with it: read-out: IC50.
For the compound `CCCCc1nc2ccc(C)c(C(=O)OCC)c2n1Cc1ccc(-c2ccccc2-c2nnn[nH]2)cc1`, the IC50 came to 910 nM.
On the same count and under the same terms, the same measure for `CCCCc1nc2cccc(COC)c2n1Cc1ccc(-c2ccccc2-c2nn[nH]n2)cc1`: 600 nM; for `CCCCc1nc2cccc(CN(C)C)c2n1Cc1ccc(-c2ccccc2-c2nn[nH]n2)cc1`: 2400 nM; for `CCCCc1nc2ccc(C)c(C(=O)O)c2n1Cc1ccc(-c2ccccc2-c2nn[nH]n2)cc1`: 340 nM.
The same measure, in the same setting: then `CCCCc1nc2cccc(C(=O)OC)c2n1Cc1ccc(-c2ccccc2-c2nn[nH]n2)cc1`, with 320 nM.
The same measure, in the same setting: the same measure for `CCCCc1nc2cc(C(=O)OC)ccc2n1Cc1ccc(-c2ccccc2-c2nn[nH]n2)cc1`: 740 nM.
For `CCCCc1nc2ccc(OC)cc2n1Cc1ccc(-c2ccccc2-c2nn[nH]n2)cc1`, the IC50 was determined as 1100 nM.
On the same count and under the same terms, the same measure for `CCCCc1nc2cc(Cl)ccc2n1Cc1ccc(-c2ccccc2-c2nn[nH]n2)cc1`: 1500 nM; for `CCCCc1nc2cccc(CC(=O)O)c2n1Cc1ccc(-c2ccccc2-c2nn[nH]n2)cc1`: 2600 nM; for `CCCCc1nc2cccc(CC(=O)OCC)c2n1Cc1ccc(-c2ccccc2-c2nn[nH]n2)cc1`: 250 nM.
Same read-out and setting: the same measure for `CCCCc1nc2cc(Cl)cc(C(=O)OC)c2n1Cc1ccc(-c2ccccc2-c2nn[nH]n2)cc1`: 440 nM; for `CCCCc1nc2cccc(C(=O)OCC)c2n1Cc1ccc(-c2ccccc2-c2nn[nH]n2)cc1`: 1400 nM.
On the same count and under the same terms, the same measure for `CCCCc1nc2cccc(C(=O)O)c2n1Cc1ccc(-c2ccccc2C(=O)O)cc1`: 660 nM.
With `CCCCc1nc2ccc(Cl)cc2n1Cc1ccc(-c2ccccc2-c2nn[nH]n2)cc1`, the IC50 came to 3100 nM.
Still for that read-out and setting: the same measure for `CCCCOC(=O)c1cccc2nc(CCCC)n(Cc3ccc(-c4ccccc4-c4nn[nH]n4)cc3)c12`: 1200 nM.
Same read-out and setting: then `CCCCc1nc2cccc(C)c2n1Cc1ccc(-c2ccccc2-c2nn[nH]n2)cc1`, with 330 nM.
Regarding `CCCCc1nc2cc(C(=O)O)ccc2n1Cc1ccc(-c2ccccc2-c2nn[nH]n2)cc1`, the IC50 came to 5500 nM.
Still for that read-out and setting: the same measure for `CCCCc1nc2cccc(C(=O)NC(C)C)c2n1Cc1ccc(-c2ccccc2-c2nn[nH]n2)cc1`: 540 nM.
On the same count and under the same terms, then `CCCCc1nc2cc(OC)ccc2n1Cc1ccc(-c2ccccc2-c2nn[nH]n2)cc1`, with 910 nM; and `CCCCc1nc2cccc(O)c2n1Cc1ccc(-c2ccccc2-c2nn[nH]n2)cc1`, with 1100 nM.
`CCCCc1nc2ccc(C(=O)OC)cc2n1Cc1ccc(-c2ccccc2-c2nn[nH]n2)cc1`: the IC50 stood at 440 nM.
Turning to `CCCCc1nc2cccc(OC)c2n1Cc1ccc(-c2ccccc2-c2nn[nH]n2)cc1`, the IC50 is 2800 nM.
As to `CCCCc1nc2c(C(=O)OC)cccc2n1Cc1ccc(-c2ccccc2-c2nn[nH]n2)cc1`, the IC50 was 7200 nM.
On the same count and under the same terms, then `CCCCc1nc2cccc(C(=O)O)c2n1Cc1ccc(-c2ccccc2-c2nnnn2C)cc1`, with 3400 nM.
Still for that read-out and setting: then `CCCCc1nc2cccc(CO)c2n1Cc1ccc(-c2ccccc2-c2nn[nH]n2)cc1`, with 450 nM; and `CCCCc1nc2ccc(C(=O)O)cc2n1Cc1ccc(-c2ccccc2-c2nn[nH]n2)cc1`, with 9000 nM.
For `CCCCc1nc2cc(C)cc(C(=O)O)c2n1Cc1ccc(-c2ccccc2-c2nn[nH]n2)cc1`, the IC50 is 1300 nM.
The same measure, in the same setting: the same measure for `CCCCc1nc2cc(C)cc(C(=O)OC)c2n1Cc1ccc(-c2ccccc2-c2nn[nH]n2)cc1`: 870 nM; for `CCCCc1nc2ccccc2n1Cc1ccc(-c2ccccc2C(=O)O)cc1`: 1100 nM; for `CCCCc1nc2ccccc2n1Cc1ccc(-c2ccccc2-c2nn[nH]n2)cc1`: 900 nM.

The same test, now with this note: read-out: pIC50 (converted).
For the compound `CCCCc1nc2ccc(C)c(C(=O)O)c2n1Cc1ccc(-c2ccccc2-c2nn[nH]n2)cc1`, the IC50 is 328 nM.
On the same count and under the same terms, then `CCCCc1nc2cccc(CC(=O)O)c2n1Cc1ccc(-c2ccccc2-c2nn[nH]n2)cc1`, with 2820 nM; and `CCCCOC(=O)c1cccc2nc(CCCC)n(Cc3ccc(-c4ccccc4-c4nn[nH]n4)cc3)c12`, with 1300 nM.
Consider `CCCCc1nc2cc(C(=O)O)ccc2n1Cc1ccc(-c2ccccc2-c2nn[nH]n2)cc1`, for which the IC50 is 5620 nM.
Consider `CCCCc1nc2ccccc2n1Cc1ccc(-c2ccccc2C(=O)O)cc1`, for which the IC50 is 110 nM.
